Experimental data published in US20230293601A1 (SYNGEN BIOTECH CO., LTD., priority 2022, published 2023).

Tests used:
intestinal microflora = experiment: Microflora analysis of feces of the mice (OTU clustering, heatmap, PLS-DA, metagenomeSeq); type: in vivo
Protocol: (§1) A number of 5-week-old male BALB/c strain mice are selected and randomly divided into groups. The experimental period is 18 days. The temperature of rearing environment of the mice in each group is maintained at 22±2° C., with a day and night cycle of 12 hours each.
After the test in embodiment 4, the feces of the mice in each group are collected, and sequence analysis of the feces of the mice in each group is outsourced, and then similarity (greater than 97%) OTUs (Operational Taxonomic Units) clustering and species classification analysis are performed. According to the species annotation results, the top 10 species with relative abundance in the mice in each group in the phylum are selected. Wherein fecal sequencing analysis and microflora analysis are known to a person having ordinary skill in the art to which the invention pertains; generally speaking, the fecal samples are firstly performed with DNA extraction and purification, followed by PCR amplification, purification and sequencing, the sequencing results will go through steps of paired sequence splicing (Raw Tags) and filtering to obtain identifiable valid data, and then OTUs clustering and species classification analysis are performed.
According to the species annotation information and abundance information of all the groups in each taxonomic rank, the top 35 genera in abundance are selected, and the group abundance is the average abundance of all the samples in the group. Clustering is performed at the species level to draw a species heatmap of the fecal samples in each group, the results are shown in FIG. 9.
Partial least square discriminant analysis (PLS-DA) is used to analyze the β-diversity of microbial flora in the feces of the mice in each group to determine whether there is a difference in bacterial flora among the microflora of the mice in each group. The microflora data of the mice in each group are analyzed by metagenomeSeq to evaluate specific differences between the microflora of the mice in each group, and the results are shown in FIG. 11A to FIG. 11D.

BALB/c strain mice = experiment: Animal test: body weight, food intake and diarrhea index of mice given 5-FU drug; type: in vivo
Protocol: as §1
Body weight and feed intake of the mice in each group are measured and recorded every day during the testing period. The results are shown in FIG. 2 and FIG. 3; after administration of 5-FU drug, the feces of the mice in each group are collected, and the diarrhea index of the mice in each group is evaluated, the results are shown in FIG. 4.

[1] = test system: chemotherapy-induced diarrhea; conditions: literature, cited from earlier work
IL-6 = experiment: Concentration of IL-6 in the serum of the mice (commercial kit); type: in vivo; conditions: same regimen, after the test period; FIG. 5
Protocol: as §1, with “each. […] After the test period in embodiment 4, the serum of the mice in each group is collected respectively, and the concentration of IL-6 in the serum of the mice in each group is analyzed with a commercial kit.” for “each.”

[2] = test system: large intestine and small intestine tissues; experiment: Length of large intestine and hematoxylin-eosin staining of small and large intestine tissues of the mice; type: in vivo; conditions: same regimen
Protocol: A number of 5-week-old male BALB/c strain mice are selected and randomly divided into groups. The experimental period is 18 days. The temperature of rearing environment of the mice in each group is maintained at 22±2° C., with a day and night cycle of 12 hours each. […] After the test period in embodiment 4, large intestine and small intestine tissues of the mice in each group are collected, and a length of the large intestine of the mice in each group is measured respectively, the results are shown in FIG. 6; the large intestine and small intestine of the mice in each group are sliced respectively, and stained with hematoxylin-eosin, the results are shown in FIGS. 7A and 7B.

NC(=O)CC[C@H](N)C(=O)O [glutamine, L-glutamine]
relative abundance of Proteobacteria in feces (intestinal microflora; FIG. 8, compared with 5-FU only (group 2)): can be reduced
abundances of the microflora associated with diarrhea and enteritis (Escherichia shigella, Odoribacter) (intestinal microflora; FIG. 9 heatmap, compared with group 2): lower than that of the mice in group 2
microflora distribution (PLS-DA, β-diversity) (intestinal microflora; FIG. 10, relative to group 2): close to that of the mice in group 2
relative abundance of UBA1819 (intestinal microflora; metagenomeSeq, FIG. 11A, compared with group 2): can not be significantly reduced
relative abundance of Staphylococcus (intestinal microflora; metagenomeSeq, FIG. 11B, compared with group 2): can not be significantly reduced
relative abundance of Escherichia shigella (intestinal microflora; metagenomeSeq, FIG. 11C, compared with group 2): can be significantly reduced
relative abundance of Muribaculum (intestinal microflora; metagenomeSeq, FIG. 11D, compared with group 2 (5-FU only)): significantly reduced
body weight (BALB/c strain mice; 5-FU 50 mg/kg/day i.p. days 11-13, BC198 5×10^8/day and/or glutamine 1 g/kg/day oral daily, 18 days, FIG. 2): able to maintain their body weight
food intake (BALB/c strain mice; same regimen, FIG. 3, group 5 statement for days 14-15): able to maintain their body weight and food intake
diarrhea index (BALB/c strain mice; same regimen, FIG. 4, compared with 5-FU only (group 2), days 14-15): able to alleviate the diarrhea caused by 5-FU drug
doxifluridine-induced diarrhea [1]: incapable of inhibiting
severity of 5-FU/calciumfolinate-induced stomatitis, nausea and diarrhea [1]: incapable of mitigating severity
duration of chemotherapy-induced diarrhea ([1]; patients): capable of reducing the duration
severity of chemotherapy-induced diarrhea ([1]; patients): incapable of improving its severity
concentration of IL-6 in the serum (IL-6): significantly lower than that of the mice in group 2
length of large intestine ([2]; after the test period, FIG. 6): maintain their large intestine lengths
structure of small and large intestine tissues (hematoxylin-eosin) ([2]; FIGS. 7A and 7B, compared with 5-FU only (group 2)): able to mitigate lesion to the structures of the small and large intestines induced by 5-FU drug
